Test results reported in patent US20220251084A1, “PROGRANULIN MODULATORS AND METHODS OF USING THE SAME” (ARKUDA THERAPEUTICS, priority 2019, published 2022).

Test system: progranulin (PGRN) secretion, BV-2 cells
Experiment: PGRN assay: progranulin induction cellular assay (ELISA of secreted mouse PGRN)
Format: cell-based
Conditions: Mus musculus, BV-2, PGRN assay, Table D; secreted mouse PGRN in cell culture medium, ELISA
Summary of the method: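 Progranulin induction measured in BV-2 cells plated at about 80% confluence the day before, given 1 h to attach, then incubated 16 h. Secreted mouse PGRN quantified by ELISA.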

EC50 [nM]	SMILES
806	N[C@H]1CCN(C(=O)N2CCc3ccccc3[C@@H]2c2ccc(F)cc2)C1 [Compound 2284]
2840	N[C@@H]1CCN(C(=O)N2CCc3ccccc3[C@H]2c2ccc(F)cc2)C1 [Compound 2286]
351	N[C@@H]1CCN(C(=O)N2CCc3ccccc3[C@@H]2c2ccc(F)cc2)C1 [Compound 2287]
248	NC[C@H]1CCN(C(=O)N2CCc3ccccc3[C@@H]2c2ccc(F)cc2)C1 [Compound 2288]
> 10000	CN1CC[C@@H](O)[C@H](O)[C@H]1COC(=O)N1CCc2ccccc2[C@@H]1c1ccc(F)cc1 [Compound 2289, ((2R,3R,4R)-3,4-dihydroxy-1-methylpiperidin-2-yl)methyl (S)-1-(4-fluorophenyl)-3,4-dihydroisoquinoline-2(1H)-carboxylate]
591	CC1(C)CNC[C@@H]1OC(=O)N1CCc2ccccc2[C@@H]1c1ccc(F)cc1 [Compound 2291]
431	CC1(C)CNC[C@H]1OC(=O)N1CCc2ccccc2[C@@H]1c1ccc(F)cc1 [Compound 2292]
> 10000	CN1C[C@@H](NC(=O)N2CCc3ccccc3[C@@H]2c2ccc(F)cc2)C(F)(F)C1 [Compound 2293, (S)—N—((R)-4,4-difluoro-1-methylpyrrolidin-3-yl)-1-(4-fluorophenyl)-3,4-dihydroisoquinoline-2(1H)-carboxamide]
> 10000	CN1C[C@H](NC(=O)N2CCc3ccccc3[C@@H]2c2ccc(F)cc2)C(F)(F)C1 [Compound 2294, (S)—N—((S)-4,4-difluoro-1-methylpyrrolidin-3-yl)-1-(4-fluorophenyl)-3,4-dihydroisoquinoline-2(1H)-carboxamide]
4020	CN(C(=O)N1CCc2ccccc2[C@@H]1c1ccc(F)cc1)[C@@H]1CNCC1(F)F [Compound 2296, (S)—N—((R)-4,4-difluoropyrrolidin-3-yl)-1-(4-fluorophenyl)-N-methyl-3,4-dihydroisoquinoline-2(1H)-carboxamide]
> 10000	CN(C(=O)N1CCc2ccccc2[C@@H]1c1ccc(F)cc1)[C@H]1CNCC1(F)F [Compound 2297, (S)—N—((S)-4,4-difluoropyrrolidin-3-yl)-1-(4-fluorophenyl)-N-methyl-3,4-dihydroisoquinoline-2(1H)-carboxamide]
> 10000	CN1C[C@@H](N(C)C(=O)N2CCc3ccccc3[C@@H]2c2ccc(F)cc2)C(F)(F)C1 [Compound 2298, (S)—N—((R)-4,4-difluoro-1-methylpyrrolidin-3-yl)-1-(4-fluorophenyl)-N-methyl-3,4-dihydroisoquinoline-2(1H)-carboxamide]
> 10000	CN1C[C@H](N(C)C(=O)N2CCc3ccccc3[C@@H]2c2ccc(F)cc2)C(F)(F)C1 [Compound 2299, (S)—N—((S)-4,4-difluoro-1-methylpyrrolidin-3-yl)-1-(4-fluorophenyl)-N-methyl-3,4-dihydroisoquinoline-2(1H)-carboxamide]
160	NC[C@@H]1CN(C(=O)N2CCc3ccccc3[C@@H]2c2ccc(F)cc2)CCO1 [Compound 2302, ((R)-2-(aminomethyl)morpholino)((S)-1-(4-fluorophenyl)-3,4-dihydroisoquinolin-2(1H)-yl)methanone]
329	NC[C@H]1CN(C(=O)N2CCc3ccccc3[C@@H]2c2ccc(F)cc2)CCO1 [Compound 2303]
129	CNC[C@@H]1CN(C(=O)N2CCc3ccccc3[C@@H]2c2ccc(F)cc2)CCO1 [Compound 2306]

EC50 [nM]	SMILES
483	CNC[C@H]1CN(C(=O)N2CCc3ccccc3[C@@H]2c2ccc(F)cc2)CCO1 [Compound 2307]
2940	O=C(NCC1CNC[C@@H]1O)N1CCc2ccccc2[C@@H]1c1ccc(F)cc1 (stereo partly drawn) [Compound 2308, (S)-1-(4-fluorophenyl)-N-((cis-4-hydroxypyrrolidin-3-yl)methyl)-3,4-dihydroisoquinoline-2(1H)-carboxamide]
987	CN(C)[C@@H]1CCN(C(=O)N2CCc3ccccc3[C@@H]2c2ccc(F)cc2)C1 [Compound 2312]
2940	CN(C)C[C@@H]1CCN(C(=O)N2CCc3ccccc3[C@@H]2c2ccc(F)cc2)C1 [Compound 2313, ((S)-3-((dimethylamino)methyl)pyrrolidin-1-yl)((S)-1-(4-fluorophenyl)-3,4-dihydroisoquinolin-2(1H)-yl)methanone]
1660	CN(C)C[C@H]1CCN(C(=O)N2CCc3ccccc3[C@@H]2c2ccc(F)cc2)C1 [Compound 2314]
742	CN1C[C@H](NC(=O)N2CCc3ccccc3[C@@H]2c2ccc(F)cc2)C2(CC2)C1 [Compound 2315]
453	CN1C[C@H](NC(=O)N2CCc3ccccc3[C@H]2c2ccc(F)cc2)C2(CC2)C1 [Compound 2316]
346	O=C(O[C@@H]1CNC[C@H]1F)N1CCc2ccccc2[C@@H]1c1ccc(F)cc1 [Compound 2349, (3R,4R)-4-fluoropyrrolidin-3-yl (S)-1-(4-fluorophenyl)-3,4-dihydroisoquinoline-2(1H)-carboxylate]
130	O=C(N[C@H]1CNC[C@@H]1F)N1CCc2ccccc2[C@@H]1c1ccc(F)cc1 [Compound 2351, (S)-1-(4-fluorophenyl)-N-((3S,4S)-4-fluoropyrrolidin-3-yl)-3,4-dihydroisoquinoline-2(1H)-carboxamide]
125	O=C(N[C@H]1CNC[C@H]1F)N1CCc2ccccc2[C@@H]1c1ccc(F)cc1 [Compound 2352]
33.9	O=C(N[C@@H]1CNC[C@@H]1F)N1CCc2ccccc2[C@@H]1c1ccc(F)cc1 [Compound 2353]
148	O=C(N[C@@H]1CNC[C@H]1F)N1CCc2ccccc2[C@@H]1c1ccc(F)cc1 [Compound 2360]
365	O=C(O[C@H]1CNC[C@@H]1F)N1CCc2ccccc2[C@@H]1c1ccc(F)cc1 [Compound 2361, (3S,4S)-4-fluoropyrrolidin-3-yl (S)-1-(4-fluorophenyl)-3,4-dihydroisoquinoline-2(1H)-carboxylate]
> 3160	O=C(O[C@H]1CNC[C@H]1F)N1CCc2ccccc2[C@@H]1c1ccc(F)cc1 [Compound 2362]
104	O=C(O[C@@H]1CNC[C@@H]1F)N1CCc2ccccc2[C@@H]1c1ccc(F)cc1 [Compound 2363]

Same assay, conditions: mouse BV2 cells

SMILES	secretion of progranulin
O=C(O[C@H]1CN2CCC1CC2)N1CCc2ccccc2[C@@H]1c1ccccc1 [Solifenacin, reference compound]	causes the secretion of progranulin
